Source: patent publication US20220160712A1, “METHODS OF TREATING RHEUMATOID ARTHRITIS AND FOR PREDICTING THE RESPONSE TO METHOTREXATE” (CHAN ZUCKERBERG BIOHUB, INC., priority 2020, published 2022)

Tests used:
C. symbiosum = experiment: In vitro bacterial rescue study with folic acid; assay type: cell-based, Clostridium symbiosum; settings: MTX resistant isolate; high doses of MTX
Method: (§1) As described in the ur in vitro bacterial growth studies, 48-hour overnight cultures were grown in an anaerobic chamber in liquid BHI+ for the following isolates: Bacteroides vulgatus, Bacteroides thetaiotaomicron, Clostridium innocuum and Clostridium symbiosum. Each subculture was diluted down to an OD600 of 0.08-0.1, which was then further diluted 100-fold, and then used to inoculate a 96-well microtiter plate with 2-fold serial dilutions of MTX (Sigma, Cat #M9929) concentrations ranging from 0-450 μg/ml (0-990 μM) along the columns (1-10) and 2-fold serial dilutions of folic acid (Fischer Scientific, BP25195) ranging from 0-250 μg/ml (0-566 μM) along the rows (A-H). Each plate included media and growth controls. […]
(§2) Growth parameters (carrying capacity, time to mid-exponential and growth rate) were calculated in R using GrowthCurveR (Sprouffske, K., and Wagner, A. (2016), BMC Bioinformatics 17, 1726) (v0.2.1). […] For rescue studies, as above, growth parameters (carrying capacity, time to mid-exponential, growth rate, and area under the curve) were calculated in R using GrowthCurveR (Sprouffske and Wagner, 2016) (v0.2.1). Four isolates were evaluated with varying sensitivity to MTX (B. thetaiotaomicron, B. vulgatus, C. innocuum and C. symbiosum). […] Growth curves at 9 concentrations of MTX tested against 7 concentrations of folic acid were measured. […]

C. innocuum = experiment: In vitro bacterial rescue study with folic acid; assay type: cell-based, Clostridium innocuum; settings: folic acid 0-250 μg/ml; MTX 0-450 μg/ml
Method: as §1, §2

B. theta = experiment: In vitro bacterial rescue study with folic acid; assay type: cell-based, Bacteroides thetaiotaomicron; settings: in the presence and absence of MTX; folic acid 0-250 μg/ml
Method: as §1, §2

human gut microbiota = experiment: MTX treatment of gnotobiotic mice colonized with human stool; 16S-seq and qPCR of gut microbiota; assay type: in vivo; settings: Donor 3 mice, oral MTX 50 mg/kg with or without equimolar folic acid
B. vulgatus = experiment: In vitro bacterial rescue study with folic acid; assay type: cell-based, Bacteroides vulgatus; settings: folic acid 0-250 μg/ml; MTX 0-450 μg/ml
Method: as §1, §2

[1] = test system: B. vulgatus, B. thetaiotaomicron, C. innocuum, and C. symbiosum; experiment: In vitro bacterial rescue study with leucovorin; assay type: cell-based

| Compound | effect of folic acid on MTX sensitivity (C. symbiosum) | dose-dependent increases in growth with folic acid (C. innocuum) | growth in response to folic acid (B. theta) | rescue of the gut microbiota from MTX by co-administered folic acid (α- or β-diversity between groups) (human gut microbiota) | rescue of the gut microbiota from MTX by co-administered folic acid (α- or β-diversity between groups) (human gut microbiota; listed as Folic acid) | dose-dependent increases in growth with folic acid (B. vulgatus) | effect of leucovorin on growth of the tested isolates ([1]; leucovorin 0-125 μg/ml (FIG. 4D and 4E)) | dose-dependent effects of leucovorin on growth in the presence of MTX ([1]; leucovorin 0-125 μg/ml, linear regression (FIG. 4F)) |
| --- | --- | --- | --- | --- | --- | --- | --- | --- |
| Nc1nc2ncc(CNc3ccc(C(=O)N[C@@H](CCC(=O)O)C(=O)O)cc3)nc2c(=O)[nH]1 [folic acid] | sensitized to MTX | only evident in the presence of MTX | improved in a dose-dependent manner | Neither route nor rescue resulted in a significant difference | did not markedly rescue the gut microbiota | only evident in the presence of MTX |  |  |
| Nc1nc2c(c(=O)[nH]1)N(C=O)C(CNc1ccc(C(=O)N[C@@H](CCC(=O)O)C(=O)O)cc1)CN2 (some centres unmarked) [leucovorin] |  |  |  |  |  |  | improved growth of 3 of the 4 tested isolates | did not have any significant dose-dependent effects |
